Source: PubChem BioAssay (NCI)
Where “and” joins values, the source holds several entries; their conditions need not be identical. Equal entries are not always repeated.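 Briefly, cells in 96-well plates were exposed to five compound concentrations for 48 h, and endpoints were estimated by linear interpolation. GI50 = concentration required for 50% inhibition of growth. The concentration for full growth arrest is given as TGI.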

Columns and labels:
Assay in all cases: inhibition of tumour cell growth, NCI panel, 48 h
PC-3 prostate = system: PC-3 prostate
HCT-15 colon = system: HCT-15 colon
A498 renal = system: A498 renal
CCRF-CEM leukemia = system: CCRF-CEM leukemia
OVCAR-3 ovarian = system: OVCAR-3 ovarian
KM12 colon = system: KM12 colon
SNB-75 CNS = system: SNB-75 CNS
COLO 205 colon = system: COLO 205 colon
NCI-H23 lung = system: NCI-H23 lung
SR leukemia = system: SR leukemia

Row | SMILES | GI50 (PC-3 prostate) | TGI (PC-3 prostate) | GI50 (HCT-15 colon) | TGI (HCT-15 colon) | GI50 (A498 renal) | TGI (A498 renal) | GI50 (CCRF-CEM leukemia) | TGI (CCRF-CEM leukemia) | GI50 (OVCAR-3 ovarian) | TGI (OVCAR-3 ovarian) | GI50 (KM12 colon) | TGI (KM12 colon) | GI50 (SNB-75 CNS) | TGI (SNB-75 CNS) | GI50 (COLO 205 colon) | GI50 (NCI-H23 lung) | TGI (NCI-H23 lung) | GI50 (SR leukemia) | TGI (SR leukemia) | TGI (COLO 205 colon)
1 | O=[N+]([O-])c1cc([N+](=O)[O-])c(Nn2c3ccccc3c3ccccc32)c([N+](=O)[O-])c1 | 0.316 µM | 7.37 µM and 11.3 µM | 0.377 µM | 11.8 µM and 3.97 µM | 0.228 µM | 0.624 µM | 0.355 µM | > 100 µM | 0.352 µM | > 33.5 µM | 0.305 µM | 3.77 µM and 1.7 µM | 0.204 µM | 0.92 µM | 0.195 µM | 0.313 µM | 4.55 µM and 3.96 µM | 0.232 µM | > 100 µM | 
2 | COC(=O)c1cc2c3ccccc3n3c2c(n1)-c1[nH]c2ccccc2c(=O)c1C3 | > 100 µM | > 100 µM | > 100 µM | > 100 µM | 27 µM | 73.7 µM | 2.19 µM | > 100 µM | > 100 µM | > 100 µM | > 100 µM | > 100 µM | 16 µM | 71.3 µM | > 100 µM | 38.9 µM | > 100 µM | 17.3 µM | 96.9 µM | > 100 µM
